{"source": "ChEMBL document CHEMBL5034023", "about": "“Development of Multifunctional and Orally Active Cyclic Peptide Agonists of Opioid/Neuropeptide FF Receptors that Produce Potent, Long-Lasting, and Peripherally Restricted Antinociception with Diminished Side Effects” (J Med Chem, 2021)", "key": {"Mus musculus [1]": {"tested_on": "Mus musculus", "test": "Antinociceptive activity against Kunming mouse model of thermal-induced nociception assessed as prolongation of tail-flick latency period at 8.68 nmol/kg, po in presence of beta-FNA at 1 mg/kg, ip measured up to 240 mins by tail-flick test", "format": "functional, organism-based", "details": "time min <=240"}, "Mus musculus [2]": {"tested_on": "Mus musculus", "test": "Antinociceptive activity against Kunming mouse model of thermal-induced nociception assessed as prolongation of tail-flick latency period at 0.87 nmol/kg, po in presence of RF9 at 5 mg/kg, ip measured up to 240 mins by tail-flick test", "format": "functional, organism-based", "details": "time min <=240"}, "Mus musculus [3]": {"tested_on": "Mus musculus", "test": "Antinociceptive activity against Kunming mouse model of thermal-induced nociception assessed as prolongation of tail-flick latency period at 8.68 nmol/kg, po measured up to 240 mins by tail-flick test", "format": "functional, organism-based", "details": "time min <=240"}, "[4]": {"target": "Neuropeptide FF receptor 1 (Homo sapiens, UniProt Q9GZQ6)", "sequence (Q9GZQ6 whole entry)": "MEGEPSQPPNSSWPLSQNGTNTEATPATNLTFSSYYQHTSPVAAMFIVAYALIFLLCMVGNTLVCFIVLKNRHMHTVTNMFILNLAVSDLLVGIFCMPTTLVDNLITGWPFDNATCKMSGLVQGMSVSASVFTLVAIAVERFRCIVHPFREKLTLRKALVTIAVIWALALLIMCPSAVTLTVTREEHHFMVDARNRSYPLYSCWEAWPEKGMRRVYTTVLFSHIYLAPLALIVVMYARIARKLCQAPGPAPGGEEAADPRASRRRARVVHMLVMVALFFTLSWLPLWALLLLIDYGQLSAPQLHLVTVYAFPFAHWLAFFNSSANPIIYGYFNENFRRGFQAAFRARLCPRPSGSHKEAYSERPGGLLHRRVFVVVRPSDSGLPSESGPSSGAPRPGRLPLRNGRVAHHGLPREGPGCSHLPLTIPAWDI", "test": "Agonist activity at NPFF1R (unknown origin) expressed in HEK293-A cells assessed as inhibition of forskolin-induced cAMP accumulation by measuring maximal efficacy preincubated for 30 mins in presence of 3-isobutyl-1-methylxanthine followed by forskolin and compound addition by competitive PKA binding assay relative to control", "format": "functional, cell-based", "details": "filed as agonist"}, "Mus musculus [5]": {"tested_on": "Mus musculus", "test": "Antinociceptive activity against Kunming mouse model of thermal-induced nociception assessed as prolongation of tail-flick latency period at 8.68 nmol/kg, po in presence of NTI at 1 mg/kg, ip measured up to 240 mins by tail-flick test", "format": "functional, organism-based", "details": "time min <=240"}, "[6]": {"test": "AUC (0 to infinity) in Kunming mouse at 868.1 nmol/kg, po measured up to 120 mins by LC-MS/MS analysis", "format": "ADME, organism-based", "parameters": "route oral, dose 868.1 nmol/kg, time <=120", "details": "in vivo, 2 h"}, "[7]": {"target": "Kappa-type opioid receptor (Homo sapiens, UniProt P41145)", "sequence (P41145 whole entry)": "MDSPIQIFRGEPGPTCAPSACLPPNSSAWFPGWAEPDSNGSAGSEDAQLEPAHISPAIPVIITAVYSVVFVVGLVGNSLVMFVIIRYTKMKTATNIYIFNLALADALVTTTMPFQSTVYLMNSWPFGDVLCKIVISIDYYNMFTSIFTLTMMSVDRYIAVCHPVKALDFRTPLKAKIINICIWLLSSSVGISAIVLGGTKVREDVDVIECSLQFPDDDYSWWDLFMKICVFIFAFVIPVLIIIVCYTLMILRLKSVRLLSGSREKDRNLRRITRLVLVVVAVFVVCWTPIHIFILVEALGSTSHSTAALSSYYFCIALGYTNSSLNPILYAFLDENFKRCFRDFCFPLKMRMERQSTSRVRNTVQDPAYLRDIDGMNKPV", "format": "functional, cell-based, HEK293-A"}, "Mus musculus [8]": {"tested_on": "Mus musculus", "test": "Antinociceptive activity against Kunming mouse model of thermal-induced nociception assessed as maximum possible effect at 8.68 nmol/kg, po measured after 20 min by tail flick test relative to control", "format": "functional"}, "[9]": {"test": "Apparent volume of distribution in Kunming mouse at 868.1 nmol/kg, po measured up to 120 mins by LC-MS/MS analysis", "format": "ADME, organism-based", "details": "in vivo, 2 h"}, "Mus musculus [10]": {"tested_on": "Mus musculus", "test": "Antinociceptive activity against Kunming mouse model of thermal-induced nociception assessed as prolongation of tail-flick latency period at 0.5 pmol, icv in presence of RF9 measured up to 240 mins by tail-flick test", "format": "functional, organism-based", "details": "time min <=240"}, "Mus musculus [11]": {"tested_on": "Mus musculus", "test": "Antinociceptive activity against Kunming mouse model of thermal-induced nociception assessed as duration of analgesic effect administered subcutaneously by tail-flick test", "format": "functional"}, "Mus musculus [12]": {"tested_on": "Mus musculus", "test": "Antinociceptive activity against Kunming mouse model of thermal-induced nociception assessed as prolongation of tail-flick latency period at 8.68 nmol/kg, po in presence of Nal at 1 mg/kg, ip measured up to 240 mins by tail-flick test", "format": "functional, organism-based", "details": "time min <=240"}, "[13]": {"target": "Neuropeptide FF receptor 2 (Homo sapiens, UniProt Q9Y5X5)", "sequence (Q9Y5X5 whole entry)": "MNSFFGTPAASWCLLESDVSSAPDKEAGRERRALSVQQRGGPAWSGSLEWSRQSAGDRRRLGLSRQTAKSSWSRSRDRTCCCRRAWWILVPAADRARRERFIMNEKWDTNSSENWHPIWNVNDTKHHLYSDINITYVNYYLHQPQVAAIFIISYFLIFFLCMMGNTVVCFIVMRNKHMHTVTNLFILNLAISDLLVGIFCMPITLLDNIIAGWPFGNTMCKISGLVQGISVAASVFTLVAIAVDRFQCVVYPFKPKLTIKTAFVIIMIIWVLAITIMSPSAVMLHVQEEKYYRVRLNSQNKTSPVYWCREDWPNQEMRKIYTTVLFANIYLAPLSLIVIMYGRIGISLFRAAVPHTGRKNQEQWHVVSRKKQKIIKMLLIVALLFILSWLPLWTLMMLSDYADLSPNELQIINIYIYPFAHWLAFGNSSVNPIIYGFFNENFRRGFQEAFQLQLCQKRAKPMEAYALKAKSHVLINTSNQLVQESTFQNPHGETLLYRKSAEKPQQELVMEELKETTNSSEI", "test": "Agonist activity at NPFF2R (unknown origin) expressed in HEK293-A cells assessed as inhibition of forskolin-induced cAMP accumulation by measuring maximal efficacy preincubated for 30 mins in presence of 3-isobutyl-1-methylxanthine followed by forskolin and compound addition by competitive PKA binding assay relative to control", "format": "functional, cell-based", "details": "filed as agonist"}, "[14]": {"test": "MRT (0 to infinity) in Kunming mouse at 868.1 nmol/kg, po measured up to 120 mins by LC-MS/MS analysis", "format": "ADME, organism-based", "details": "in vivo"}, "Mus musculus [15]": {"tested_on": "Mus musculus", "test": "Antinociceptive activity against Kunming mouse model of thermal-induced nociception assessed as prolongation of tail-flick latency period at 8.68 nmol/kg, po in presence of nor-BNI at 1 mg/kg, ip measured up to 240 mins by tail-flick test", "format": "functional, organism-based", "details": "time min <=240"}, "[16]": {"test": "Toxicity in Kunming mouse assessed as inhibition of gastrointestinal transit at 8681 nmol/kg, po measured after 30 mins by charcoal meal test relative to control", "format": "organism-based", "parameters": "scale not given: the % may be the effect or the level left", "details": "in vivo, 0.5 h"}, "Mu-type opioid receptor": {"target": "Mu-type opioid receptor (Homo sapiens, UniProt P35372)", "sequence (P35372 whole entry)": "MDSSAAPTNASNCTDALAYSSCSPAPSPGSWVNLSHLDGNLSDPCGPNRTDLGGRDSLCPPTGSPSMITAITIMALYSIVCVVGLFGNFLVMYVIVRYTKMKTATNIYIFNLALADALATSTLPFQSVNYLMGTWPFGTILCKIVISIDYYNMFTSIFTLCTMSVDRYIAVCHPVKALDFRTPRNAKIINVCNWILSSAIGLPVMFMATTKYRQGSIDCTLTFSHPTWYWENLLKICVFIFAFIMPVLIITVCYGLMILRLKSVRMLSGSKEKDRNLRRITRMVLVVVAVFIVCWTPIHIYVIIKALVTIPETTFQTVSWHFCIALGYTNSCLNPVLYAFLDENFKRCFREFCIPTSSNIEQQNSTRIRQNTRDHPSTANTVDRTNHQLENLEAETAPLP"}, "Mus musculus [17]": {"tested_on": "Mus musculus", "test": "Antinociceptive activity against Kunming mouse model of thermal-induced nociception assessed as prolongation of tail-flick latency period at 2 pmol, icv in presence of Nal measured up to 240 mins by tail-flick test", "format": "functional, organism-based", "details": "time min <=240"}, "Mus musculus [18]": {"tested_on": "Mus musculus", "test": "Antinociceptive activity against Kunming mouse model of thermal-induced nociception assessed as prolongation of tail-flick latency period at 2 pmol, icv in presence of bet-FNA measured up to 240 mins by tail-flick test", "format": "functional, organism-based", "details": "time min <=240"}, "Mus musculus [19]": {"tested_on": "Mus musculus", "test": "Antinociceptive activity against Kunming mouse model of thermal-induced nociception assessed as prolongation of tail-flick latency period at 8.68 nmol/kg, sc in presence of RF9 at 5 mg/kg, sc measured up to 240 mins by tail-flick test", "format": "functional, organism-based", "details": "time min <=240"}, "Mus musculus [20]": {"tested_on": "Mus musculus", "test": "Antinociceptive activity in po dosed Kunming mouse assessed as analgesic tolerance by measuring increase in maximal possible effect administered for 8 consecutive days by tail flick test (Rvb= 1.16 nmol/kg)", "format": "functional"}, "Mus musculus [21]": {"tested_on": "Mus musculus", "test": "Antinociceptive activity in Kunming mouse assessed as analgesic tolerance by measuring fold shift in maximal possible effect at 8.68 nmol/kg, po administered for 8 consecutive days by tail flick test", "format": "functional"}, "[22]": {"test": "Cmax in Kunming mouse at 868.1 nmol/kg, po measured up to 120 mins by LC-MS/MS analysis", "format": "ADME, organism-based", "parameters": "route oral, dose 868.1 nmol/kg, time <=120", "details": "in vivo"}, "[23]": {"test": "MRT (0 to infinity) in Kunming mouse at 868.1 nmol/kg, iv measured up to 120 mins by LC-MS/MS analysis", "format": "ADME, organism-based", "details": "in vivo"}, "Mus musculus [24]": {"tested_on": "Mus musculus", "test": "Antinociceptive activity against Kunming mouse model of thermal-induced nociception assessed as prolongation of tail-flick latency period at 8.68 nmol/kg, po in presence of NALM at 5 nmol, icv measured up to 240 mins by tail-flick test", "format": "functional, organism-based", "details": "time min <=240"}, "Mus musculus [25]": {"tested_on": "Mus musculus", "test": "Antinociceptive activity against Kunming mouse model of thermal-induced nociception assessed as maximum possible effect at 8.68 nmol/kg, po measured after 60 min by tail flick test relative to control", "format": "functional", "details": "1 h"}, "[26]": {"target": "Delta-type opioid receptor (Homo sapiens, UniProt P41143)", "sequence (P41143 whole entry)": "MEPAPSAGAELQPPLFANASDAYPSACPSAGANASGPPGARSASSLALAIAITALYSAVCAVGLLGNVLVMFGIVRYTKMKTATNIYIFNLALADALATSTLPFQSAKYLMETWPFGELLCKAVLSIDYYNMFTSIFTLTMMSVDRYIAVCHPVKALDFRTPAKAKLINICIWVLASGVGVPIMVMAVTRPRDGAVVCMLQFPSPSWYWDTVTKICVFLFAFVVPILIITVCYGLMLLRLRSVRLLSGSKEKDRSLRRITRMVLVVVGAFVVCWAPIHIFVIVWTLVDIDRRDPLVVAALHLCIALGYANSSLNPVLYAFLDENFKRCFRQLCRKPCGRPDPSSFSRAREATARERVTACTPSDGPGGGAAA", "test": "Agonist activity at DOR (unknown origin) expressed in HEK293-A cells assessed as inhibition of forskolin-induced cAMP accumulation preincubated for 30 mins in presence of 3-isobutyl-1-methylxanthine followed by forskolin and compound addition by competitive PKA binding assay", "format": "functional, cell-based"}, "[27]": {"test": "Absolute oral bioavailability in Kunming mouse at 868.1 nmol/kg measured up to 120 mins by LC-MS/MS analysis", "format": "ADME, organism-based", "details": "in vivo"}, "Mus musculus [28]": {"tested_on": "Mus musculus", "test": "Antinociceptive activity against Kunming mouse model of thermal-induced nociception assessed as peripheral analgesia administered subcutaneously by tail-flick test", "format": "functional", "details": "sc"}, "Mus musculus [29]": {"tested_on": "Mus musculus", "test": "Antinociceptive activity against Kunming mouse model of thermal-induced nociception assessed as prolongation of tail-flick latency period at 8.68 nmol/kg, sc in presence of NALM at 1 mg/kg, sc measured up to 240 mins by tail-flick test", "format": "functional, organism-based", "details": "time min <=240"}, "Mus musculus [30]": {"tested_on": "Mus musculus", "test": "Antinociception activity in po dosed Kunming mouse model of sciatic nerve CCI-induced neuropathic pain assessed as reduction in thermal hypersensitivity by measuring reduction in paw withdrawl threshold measured up to 180 mins by Hargreaves test", "format": "functional", "details": "3 h, time min <=180"}}, "note": "The source made the active and inactive calls. Bridge positions count the residues as written; N and C are the ends. Square brackets hold non-standard residues; d marks the D form. Peptide text beside a SMILES is read from it. NMeF = CN[C@@H](Cc1ccccc1)C(=O)O", "data": [{"smiles": "CN1C(=O)CNC(=O)[C@H](NC(=O)[C@@H](N)Cc2ccc(O)cc2)CCCCNC(=O)C[C@@H](C(=O)N2CCC[C@H]2C(=O)N[C@@H](CCC(N)=O)C(=O)N[C@@H](CCCNC(=N)N)C(=O)N[C@@H](Cc2ccccc2)C(N)=O)NC(=O)[C@@H]1Cc1ccccc1", "note": "(H-Y[dK]G[NMeF]DPQRF-NH2; lactam 2-5)", "values": [{"measurement": "Activity", "setting": "Mus musculus [1]", "result": "inactive"}, {"measurement": "Activity", "setting": "Mus musculus [2]", "result": "Active"}, {"measurement": "Activity", "setting": "Mus musculus [3]", "result": "Active"}, {"measurement": "Emax", "setting": "[4]", "result": 73.7, "unit": "%"}, {"measurement": "Activity", "setting": "Mus musculus [5]", "result": "Active"}, {"measurement": "AUC", "setting": "[6]", "result": 13800.8, "unit": "µg·min/L"}, {"measurement": "EC50", "setting": "[7]", "result": 39, "unit": "nM"}, {"measurement": "MPE", "setting": "Mus musculus [8]", "result": 89.7, "unit": "%"}, {"measurement": "Vd(app)", "setting": "[9]", "result": 15.9, "unit": "L/kg"}, {"measurement": "Activity", "setting": "Mus musculus [10]", "result": "Active"}, {"measurement": "Tlast", "setting": "Mus musculus [11]", "result": 240, "unit": "min"}, {"measurement": "Activity", "setting": "Mus musculus [12]", "result": "inactive"}, {"measurement": "Emax", "setting": "[13]", "result": 59.5, "unit": "%"}, {"measurement": "MRT inf", "setting": "[14]", "result": 4.65, "unit": "h"}, {"measurement": "Activity", "setting": "Mus musculus [15]", "result": "inactive"}, {"measurement": "Activity", "setting": "[16]", "result": "> 50", "unit": "%"}, {"measurement": "EC50", "setting": "Mu-type opioid receptor", "result": 93.5, "unit": "nM"}, {"measurement": "Activity", "setting": "Mus musculus [17]", "result": "inactive"}, {"measurement": "Activity", "setting": "Mus musculus [18]", "result": "inactive"}, {"measurement": "Activity", "setting": "Mus musculus [19]", "result": "Active"}, {"measurement": "ED50", "setting": "Mus musculus [20]", "result": 0.00126, "unit": "µmol/kg"}, {"measurement": "fold change (FC)", "setting": "Mus musculus [21]", "result": 0.92}, {"measurement": "Cmax", "setting": "[22]", "result": 215, "unit": "ng/mL"}, {"measurement": "MRT inf", "setting": "[23]", "result": 5, "unit": "min"}, {"measurement": "Activity", "setting": "Mus musculus [24]", "result": "Active"}, {"measurement": "MPE", "setting": "Mus musculus [25]", "result": 78.9, "unit": "%"}, {"measurement": "EC50", "setting": "[26]", "result": 546, "unit": "nM"}, {"measurement": "bioavailability", "setting": "[27]", "result": 43.8, "unit": "%"}, {"measurement": "ED50", "setting": "Mus musculus [28]", "result": 0.00028, "unit": "µmol/kg"}, {"measurement": "Activity", "setting": "Mus musculus [29]", "result": "inactive"}, {"measurement": "ED50", "setting": "Mus musculus [30]", "result": 0.00322, "unit": "µmol/kg"}]}]}
